# Target: cGMP-specific 3',5'-cyclic phosphodiesterase (Homo sapiens, UniProt O76074)
# Assay: Inhibitory activity against human Phosphodiesterase 5
row,SMILES,Ki
1,O=C(OCc1ccncc1)N1Cc2c(nc3ccccc3c2O)C1c1ccc2c(c1)OCO2 (stereo not drawn),0.29 nM
2,O=C(OCc1ccncc1)N1Cc2c(nc3ccccc3c2O)[C@H]1c1ccc2c(c1)OCO2,0.23 nM
3,O=C(NCc1ccccc1)N1Cc2c(nc3ccccc3c2O)C1c1ccc2c(c1)OCO2 (stereo not drawn),1.06 nM
4,O=C(C#Cc1ccccc1)N1Cc2c(nc3ccccc3c2O)C1c1ccc2c(c1)OCO2 (stereo not drawn),0.35 nM
5,O=C(Cc1ccccc1)N1Cc2c(nc3ccccc3c2O)C1c1ccc2c(c1)OCO2 (stereo not drawn),12.5 nM
6,Oc1c2c(nc3ccccc13)C(c1ccc3c(c1)OCO3)N(C/C=C/c1ccccc1)C2 (stereo not drawn),23.3 nM
7,O=C(OCc1ccncc1)N1Cc2c(nc3ccccc3c2O)[C@@H]1c1ccc2c(c1)OCO2,3.48 nM
8,O=C(OCc1ccccc1)N1Cc2c(nc3ccccc3c2O)C1c1ccc2c(c1)OCO2 (stereo not drawn),0.58 nM
9,O=S(=O)(/C=C/c1ccccc1)N1Cc2c(nc3ccccc3c2O)C1c1ccc2c(c1)OCO2 (stereo not drawn),118 nM
10,O=C(/C=C/c1ccccc1)N1Cc2c(nc3ccccc3c2O)C1c1ccc2c(c1)OCO2 (stereo not drawn),0.22 nM
11,O=S(=O)(Cc1ccccc1)N1Cc2c(nc3ccccc3c2O)C1c1ccc2c(c1)OCO2 (stereo not drawn),113 nM
12,CN(Cc1ccccc1)C(=O)N1Cc2c(nc3ccccc3c2O)C1c1ccc2c(c1)OCO2 (stereo not drawn),11 nM
13,O=C(CCc1ccccc1)N1Cc2c(nc3ccccc3c2O)C1c1ccc2c(c1)OCO2 (stereo not drawn),4.53 nM
